Test results taken from PMC12263422, “Cryo-EM structure of the human THIK-1 K2P K^+ channel reveals a lower Y gate regulated by lipids and anesthetics” (Nature Structural & Molecular Biology, 2025).
Residue numbers refer to the chain shown, from its start. “And” between values parts separate entries of the source, which are not always exact repeats. Identical values can stand only once.

Assays:
[1] = target: T1, THIK-1 F262A (Homo sapiens, UniProt Q9HB14, F262A); test: Inside-out excised patch recordings, oocytes, THIK-1 F262A mutant (lipid activation); type: cell-based; conditions: for EC50: Linoleic acid EC50, THIK-1 F262A; for Normalized currents / Fold activation with 30.0 µM linoleic acid: THIK-1 F262A
T1 construct: expressed in transfected cells; host or cells: Xenopus oocytes (mRNA injection)
T1 sequence (Q9HB14 1-408 F262A): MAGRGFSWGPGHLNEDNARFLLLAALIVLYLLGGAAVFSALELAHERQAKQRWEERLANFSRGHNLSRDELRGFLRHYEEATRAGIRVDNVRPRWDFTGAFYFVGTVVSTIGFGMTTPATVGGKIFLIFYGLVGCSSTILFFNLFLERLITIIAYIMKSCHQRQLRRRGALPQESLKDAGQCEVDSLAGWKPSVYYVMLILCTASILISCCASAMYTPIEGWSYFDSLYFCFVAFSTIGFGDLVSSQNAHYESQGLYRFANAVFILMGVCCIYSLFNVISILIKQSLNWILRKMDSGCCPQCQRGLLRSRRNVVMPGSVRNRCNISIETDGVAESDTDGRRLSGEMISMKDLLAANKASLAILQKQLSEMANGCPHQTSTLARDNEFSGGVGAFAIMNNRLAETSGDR
From the text: (§1) Human K2P13.1 THIK-1 (GenBank accession number: NM_022054) and human K2P12.1 THIK-2 (NM_022055.1) were used in this study. For functional expression studies, the respective K^+ channel subtype coding sequences were subcloned into the oocyte expression vector pSGEM or the dual-purpose expression vector pFAW[41] and verified by sequencing. All mutant channels were obtained by site-directed mutagenesis and verified by sequencing. To increase surface expression and macroscopic currents, measurements of THIK-2 channels used a mutated ER retention motif, (R11A R12A R14A R15A R16A; THIK-2*)[20]. Vector DNA was linearized with NheI or MluI, and mRNA was synthesized in vitro using the SP6 or T7 AmpliCap Max High Yield Message Maker Kit (Cellscript, USA) or HiScribe T7 ARCA mRNA Kit (New England Biolabs).
Two-electrode voltage–clamp (TEVC) studies were performed in Xenopus oocytes. All animal use conformed to the Guide for the Care and Use of Laboratory Animals (NIH Publication 85–23), and all experiments using Xenopus toads were approved by the local ethics panels. Oocytes were stored at 17 °C in ND96 recording solution composed of (in mM): 96 NaCl, 2 KCl, 1.8 CaCl2, 1 MgCl2, 5 HEPES (pH 7.5 adjusted with NaOH and HCl), supplemented with Na-pyruvate (275 mg L^–1), theophylline (90 mg L^–1) and gentamicin (50 mg L^–1). Oocytes were injected with 1 ng mRNA for WT or mutant channels, and were incubated for 24–48 h at 17 °C. Two-electrode voltage clamp recordings were then performed as previously described[42],[43]. For macroscopic patch–clamp measurements, oocytes were obtained as described above incubated at 17 °C in a solution containing (mM): 54 NaCl, 30 KCl, 2.4 NaHCO3, 0.82 MgSO4 ×7 H2O, 0.41 CaCl2, 0.33 Ca(NO3)2 ×4 H2O and 7.5 TRIS (pH 7.4 adjusted with NaOH and HCl) for 1–4 days before use. Excised patch recordings in inside-out configuration conditions were performed at room temperature. Patch pipettes were made from thick-walled borosilicate glass GB 200TF-8P (Science Products), had resistances of 0.2–0.5 MΩ (tip diameter, 10–25 µm) and filled with a pipette solution (in mM): 120 KCl, 10 HEPES and 3.6 CaCl2 (pH 7.4 adjusted with KOH and HCl). Intracellular bath solutions and compounds were applied to the cytoplasmic side of excised patches for the various K^+ channels through a gravity flow multi-barrel pipette system. The intracellular solution had the following composition (in mM): 120 KCl, 10 HEPES, 2 EGTA and 1 pyrophosphate (pH adjusted with KOH and HCl). Currents were recorded with an EPC10 amplifier (HEKA Electronics) and sampled at 10 kHz or higher, with filtering set to 3 kHz (–3 dB) or higher, as appropriate for sampling rate. For measurements of GPCR activation, whole-cell currents were recorded for THIK-1 in transiently transfected HEK-293 cells. Cells were stimulated by a ramp protocol between −100 and +60 mV (holding potential, −80 mV). The pipette solution was composed of (in mM): 140 KCl, 2 MgCl2, 1 CaCl2, 2.5 EGTA and 10 HEPES (pH 7.3 adjusted with KOH and HCl). The extracellular bath solution had the following composition (in mM): 135 NaCl, 5 KCl, 2 MgCl2, 2 CaCl2, 10 glucose and 10 HEPES pH (pH 7.3 adjusted with NaOH and HCl). Oxotremorine M (Oxo-M) was added to extracellular bath solution to obtain the final concentration. Single-channel currents were recorded with an Axopatch 200B amplifier through a Digidata 1440A digitizer (Molecular Devices). Data were filtered at 2 kHz and recorded at a 200-kHz sampling rate with the program Clampex (Molecular Devices). Pipette solution and bath solution for cell-attached recordings contained (in mM): 140 KCl, 2 MgCl2, 1 CaCl2 and 10 HEPES (pH 7.4 adjusted with KOH and HCl). For inside-out recordings, the bath solution contained (in mM): 140 KCl, 2 MgCl2, 1 CaCl2 and 10 HEPES (pH 7.2 adjusted with KOH and HCl). All experiments were conducted at room temperature. […]

[2] = target: T2, THIK-1-Y273W (Homo sapiens, UniProt Q9HB14, Y273W); test: Inside-out excised patch recordings, oocytes, THIK-1 Y273W mutant; type: cell-based
T2 construct: expressed in transfected cells; host or cells: Xenopus oocytes (mRNA injection)
T2 sequence (Q9HB14 1-408 Y273W): T1 sequence (Q9HB14 1-408 F262A) with A262F, Y273W
From the text: as §1
Two-electrode voltage–clamp (TEVC) studies were performed in Xenopus oocytes. All animal use conformed to the Guide for the Care and Use of Laboratory Animals (NIH Publication 85–23), and all experiments using Xenopus toads were approved by the local ethics panels. Oocytes were stored at 17 °C in ND96 recording solution composed of (in mM): 96 NaCl, 2 KCl, 1.8 CaCl2, 1 MgCl2, 5 HEPES (pH 7.5 adjusted with NaOH and HCl), supplemented with Na-pyruvate (275 mg L^–1), theophylline (90 mg L^–1) and gentamicin (50 mg L^–1). Oocytes were injected with 1 ng mRNA for WT or mutant channels, and were incubated for 24–48 h at 17 °C. Two-electrode voltage clamp recordings were then performed as previously described[42],[43]. For macroscopic patch–clamp measurements, oocytes were obtained as described above incubated at 17 °C in a solution containing (mM): 54 NaCl, 30 KCl, 2.4 NaHCO3, 0.82 MgSO4 ×7 H2O, 0.41 CaCl2, 0.33 Ca(NO3)2 ×4 H2O and 7.5 TRIS (pH 7.4 adjusted with NaOH and HCl) for 1–4 days before use. Excised patch recordings in inside-out configuration conditions were performed at room temperature. Patch pipettes were made from thick-walled borosilicate glass GB 200TF-8P (Science Products), had resistances of 0.2–0.5 MΩ (tip diameter, 10–25 µm) and filled with a pipette solution (in mM): 120 KCl, 10 HEPES and 3.6 CaCl2 (pH 7.4 adjusted with KOH and HCl). […] Currents were recorded with an EPC10 amplifier (HEKA Electronics) and sampled at 10 kHz or higher, with filtering set to 3 kHz (–3 dB) or higher, as appropriate for sampling rate. For measurements of GPCR activation, whole-cell currents were recorded for THIK-1 in transiently transfected HEK-293 cells. […] Single-channel currents were recorded with an Axopatch 200B amplifier through a Digidata 1440A digitizer (Molecular Devices). Data were filtered at 2 kHz and recorded at a 200-kHz sampling rate with the program Clampex (Molecular Devices). […]

For `CCCCC/C=C\C/C=C\CCCCCCCC(=O)O` [linoleic acid], the EC50 ([1]; individual recordings) was 48.7 µM and 50.7 µM and 292 µM and 208 µM and 91.3 µM and 64.3 µM and 43.4 µM and 58.4 µM, the EC50 ([1]; mean) was 107 µM and the Normalized currents ([1]; 1 µM linoleic acid) was 0.94. For the same molecule, the Normalized currents ([1]; 10 µM linoleic acid) was 1.46, the Normalized currents ([1]; 30 µM linoleic acid) was 1.58 and the Normalized currents ([1]; 50 µM linoleic acid) was 2.39. For the same molecule, the Normalized currents ([1]; 100 µM linoleic acid) was 3.02, the Normalized currents ([1]; 150 µM linoleic acid) was 3.33 and the Normalized currents ([1]; 200 µM linoleic acid) was 3.40. For the same molecule, the “Fold activation with 30.0 µM linoleic acid” value ([1]; individual recordings) was 1.770 and 1.480 and 1.860 and 1.430 and 1.420 and 1.440 and the “Fold activation with 30.0 µM linoleic acid” value ([1]; mean) was 1.57.

In the case of `CCCCC[N+](CCCCC)(CCCCC)CCCCC` [TPenA, tetrapentylammonium], the “τ of 1 mM TPenA block” value ([2]; individual recordings) is reported as 13.500 s and 9.700 s and 8.400 s and 10.003 s and 8.350 s and 4.860 s and 3.160 s and 2.380 s and 2.990 s and 4.490 s and 10.150 s and 2.500 s and 2.400 s and 9.800 s and 5.700 s and 4.500 s and 4.080 s, the “τ of 1 mM TPenA release” value ([2]; individual recordings) is reported as 20.400 s and 14.700 s and 10.800 s and 14.800 s and 23.260 s and 14.350 s and 14.990 s and 14.820 s and 16.280 s and 20.350 s and 17.660 s and the “τ of 1 mM TPenA block” value ([2]; mean) is reported as 6.29 s. For the same molecule, the “τ of 1 mM TPenA release” value ([2]; mean) was 16.58 s.
